Where a SMILES comes first, the peptide text is derived from it. [ ]: non-standard residue; d: D form. βAla = NCCC(=O)O
How the values were obtained:
Format in all cases: in vitro ADME, human
Conditions in all cases: human, 24 h, LC-MS
[1] = Soluble peptide degradation, Cells condition (LC-MS)
Experimental: (§1) Most in vitro protease activity assays incubate the peptides or proteins of interest with a single protease in a buffered solution. However, the kinetics of protease activity in tissues are complex and highly regulated, and both the activity^[ [37] ^] and substrate specificity^[ [38] ^] of proteases can be modulated through association with other proteins.^[ [39] ^] Most MMP‐substrate peptides are also cleaved by multiple proteases,^[ [5] ^] and within the context of biomaterials, the most important factor is typically how the combined activity of all proteases, rather than the activity of any specific protease, modifies the local microenvironment versus the activity due to any individual enzyme. We synthesized peptides identified in the TAILS proteomic screen that were present on proteins that are known to be secreted or found on the cell membrane, pooled them, and added them either to cell culture media on top of cells, the “Cells” condition, or conditioned media lacking cells, the “Media” condition (Figure 2A). The fraction of peptides remaining after 24 h in each condition was then quantified using LC‐MS. Soluble proteases should be present in both conditions, however, membrane‐type proteases should primarily be found in the samples containing cells and not the conditioned media samples. A key benefit of this approach is that it surveys the total functional proteolytic activity, including the effects of inhibitors and co‐factors, and quantifies the degradation rate of soluble peptides by the complete secretome of different cell types.
(§2) hUVECs (75000 per well) or hMSCs (36000 per well) were seeded into a 48 well plate, and 500 µL media was added to the wells. […] The peptide libraries were dissolved at a stock solution of 10 mM total peptide content. For libraries containing 38 peptides, 95 µL of the stock solution was added to each well; for libraries with 19 peptides, 47.5 µL was added to each well, and media was taken at 0 and 24 h. Add 4 µL of acetic acid to all collected media in the LC‐MS plates and store them in a −80 °C freezer to prevent further proteolytic degradation. From each sample, 10 µL of crude solution was introduced by the LC‐MS through a Thermo Scientific Vanquish LC System (Thermo Fisher Scientific), which outputted to a Thermo Scientific LTQ XL Linear Ion Trap Mass Spectrometer (Thermo Fisher Scientific). The sampled mixture was trapped on a column (ProntoSIL C18 AQ, 120 Å, 3 µm, 2.0 x 50 mm HPLC Column, PN 0502F184PS030, MAC‐MOD Analytical Inc.). The samples were loaded onto the column with a solvent containing acetonitrile/water, 5:95 (v/v) containing 1% acetic acid at a flow rate of 300 µL min^−1 and held for 1 min. The sample was then eluted from the column with a linear gradient of 5–40% Solvent B (1% acetic acid in acetonitrile) at the same flow rate for 5 min. This was followed by a 1 min ramp up to 100% Solvent B, where it was re‐equilibrated with Solvent A (1% acetic acid) to 5% solvent B over the course of 1 min and held there for 2 min. The column temperature was kept at a constant 29 °C, and the mass spectrometer was operated in positive ion mode. Using a Heated ESI, the Source Voltage was set to 4.1 kV, and the capillary temperature was 350 °C. For non‐library degradation studies, 2.5 µL of 10 mM peptide stock solution for each peptide was added.
In the MMP‐14 inhibitor study, the MMP‐14 inhibitor NSC 405 020 (Cayman Chemical Company) was dissolved in DMSO to make a 10 mM stock solution and stored in −20 °C freezer. 0.5 µL MMP‐14 inhibitor stock solution was added to each well to achieve a 10 µM final concentration.
For all degradation studies using soluble peptides, a non‐proteolytically degradable NH2‐βFβAβAβAβAβAβA‐amide (βFβA6) peptide, where βF is β‐phenylalanine and βA is β‐alanine, was added at a 50 µM concentration and used as an internal standard. Peptide degradation ratios were measured by LC‐MS and analyzed by Xcalibur. […]

[2] = Soluble peptide degradation, Media condition (cell-conditioned media, LC-MS)
Experimental: as §1, §2
(§3) To assess the activity of the conditioned media, the media were divided into two equal portions. One portion was used for a standard degradation study, while the other was cultured for an additional 24 h before the PanMMP and KLVADLMASAE were added. After 24 h of incubation, the media were collected for further analysis. To assess the impact of recombinant MMP‐14 on PanMMP and KLVADLMASAE, recombinant MMP‐14 (antibodies.com) was dissolved in the media at a concentration of 0.5 nM. The remaining steps followed the standard degradation study protocol. […]

[3] = as above; remark: listed apart in the source
Experimental: as §1, §2, §3

[4] = hMSCs in culture with fresh media (Cells condition), Figure 3B heatmap, split-and-pool libraries KLVADX1X2ASAE (19 or 38 peptides per library) in media on hMSCs, ratio to βFβA6, N = 2, read-out: Fraction of peptide remaining after 24 hours: hMSC Cells
[5] = hUVECs in culture with fresh media (Cells condition), Figure 3B heatmap, split-and-pool libraries KLVADX1X2ASAE in media on hUVECs, ratio to βFβA6, N = 2, read-out: Fraction of peptide remaining after 24 hours: hUVEC Cells
[6] = hMSC-conditioned media without cells (Media condition), Figure 3B heatmap, split-and-pool libraries KLVADX1X2ASAE in hMSC-conditioned media without cells, ratio to βFβA6, N = 2, read-out: Fraction of peptide remaining after 24 hours: hMSC Media
[7] = hUVEC-conditioned media without cells (Media condition), Figure 3B heatmap, split-and-pool libraries KLVADX1X2ASAE in hUVEC-conditioned media without cells, ratio to βFβA6, N = 2, read-out: Fraction of peptide remaining after 24 hours: hUVEC Media
[8] = hMSCs in culture with fresh media (Cells condition), Figure 2B heatmap, pooled TAILS-derived soluble peptides (Ac-βAla N-terminus, βAla-amide C-terminus) in media on hMSCs (36000 per well, 48 well plate, 500 µL), ratio to βFβA6 internal standard, 24 h / 0 h, N = 5, read-out: Fraction of peptide remaining at 24 hours: hMSC Cells
[9] = hUVECs in culture with fresh media (Cells condition), Figure 2B heatmap, pooled TAILS-derived soluble peptides in media on hUVECs (75000 per well, 48 well plate, 500 µL), ratio to βFβA6 internal standard, 24 h / 0 h, N = 5, read-out: Fraction of peptide remaining at 24 hours: hUVEC Cells
[10] = Figure 2B heatmap, pooled TAILS-derived soluble peptides in 24 h hMSC-conditioned media without cells, ratio to βFβA6 internal standard, 24 h / 0 h, N = 5, read-out: Fraction of peptide remaining at 24 hours: hMSC Media
[11] = Figure 2B heatmap, pooled TAILS-derived soluble peptides in 24 h hUVEC-conditioned media without cells, ratio to βFβA6 internal standard, 24 h / 0 h, N = 5, read-out: Fraction of peptide remaining at 24 hours: hUVEC Media

Row | SMILES | remaining at 24 h [1, 4] | remaining at 24 h [1, 5] | remaining at 24 h [2, 6] | remaining at 24 h [3, 7] | remaining at 24 h [1, 8] | remaining at 24 h [1, 9] | remaining at 24 h [2, 10] | remaining at 24 h [3, 11]
1 | CC[C@H](C)[C@H](NC(=O)[C@H](Cc1ccc(O)cc1)NC(=O)[C@H](CC(=O)O)NC(=O)[C@H](C)NC(=O)[C@@H](NC(=O)[C@H](CC(C)C)NC(=O)[C@H](CCCCN)NC(=O)CCNC(C)=O)C(C)C)C(=O)N[C@@H](C)C(=O)N[C@@H](CO)C(=O)N[C@@H](C)C(=O)N[C@@H](CCC(=O)O)C(=O)NCCC(N)=O [Tyr-Ile] (Ac-[βAla]KLVADYIASAE[βAla]-NH2) | 43% | 86% | 76% | 92% | – | – | – | –
2 | CC(=O)NCCC(=O)N[C@@H](CCCCN)C(=O)N[C@@H](C)C(=O)N1CCC[C@H]1C(=O)NCC(=O)NCC(=O)N[C@@H](CCCCN)C(=O)N[C@@H](C)C(=O)N[C@@H](C)C(=O)NCC(=O)N1CCC[C@H]1C(=O)N[C@@H](C)C(=O)NCCC(N)=O [KAPGGKAAGPA] (Ac-[βAla]KAPGGKAAGPA[βAla]-NH2) | – | – | – | – | 78% | 71% | 95% | 88%
3 | CC(=O)NCCC(=O)N[C@@H](CCCCN)C(=O)N[C@@H](CC(C)C)C(=O)N[C@H](C(=O)N[C@@H](C)C(=O)N[C@@H](CC(=O)O)C(=O)N1CCC[C@H]1C(=O)N[C@H](C(=O)N[C@@H](C)C(=O)N[C@@H](CO)C(=O)N[C@@H](C)C(=O)N[C@@H](CCC(=O)O)C(=O)NCCC(N)=O)C(C)C)C(C)C [Pro-Val] (Ac-[βAla]KLVADPVASAE[βAla]-NH2) | 51% | 92% | 84% | 100% | – | – | – | –
4 | CSCC[C@H](NC(=O)[C@H](CC(=O)O)NC(=O)[C@H](C)NC(=O)[C@@H](NC(=O)[C@H](CC(C)C)NC(=O)[C@H](CCCCN)NC(=O)CCNC(C)=O)C(C)C)C(=O)N[C@@H](Cc1c[nH]cn1)C(=O)N[C@@H](C)C(=O)N[C@@H](CO)C(=O)N[C@@H](C)C(=O)N[C@@H](CCC(=O)O)C(=O)NCCC(N)=O [Met-His] (Ac-[βAla]KLVADMHASAE[βAla]-NH2) | 46% | 90% | 74% | 100% | – | – | – | –
5 | CC[C@H](C)[C@H](NC(=O)[C@@H](NC(=O)[C@H](CCSC)NC(=O)[C@@H]1CCCN1C(=O)[C@H](CCCCN)NC(=O)[C@H](CCCCN)NC(=O)CCNC(C)=O)[C@@H](C)O)C(=O)N[C@@H](C)C(=O)N[C@@H](CCCNC(=N)N)C(=O)N[C@@H](CC(C)C)C(=O)N[C@@H](CC(N)=O)C(=O)N[C@@H](C)C(=O)N[C@@H](CCCCN)C(=O)N[C@@H](CCCCN)C(=O)NCCC(N)=O [KKPMTIARLNAKK] (Ac-[βAla]KKPMTIARLNAKK[βAla]-NH2) | – | – | – | – | 75% | 73% | 94% | 74%
6 | CC[C@H](C)[C@H](NC(=O)[C@H](CCC(=O)O)NC(=O)[C@H](C)NC(=O)[C@H](CC(C)C)NC(=O)[C@H](C)NC(=O)[C@H](CC(=O)O)NC(=O)CCNC(C)=O)C(=O)N[C@@H](CC(C)C)C(=O)N[C@@H](CCC(N)=O)C(=O)N[C@@H](C)C(=O)N[C@@H](CC(N)=O)C(=O)N[C@@H](CC(=O)O)C(=O)NCCC(N)=O [DALAEILQAND] (Ac-[βAla]DALAEILQAND[βAla]-NH2) | – | – | – | – | 81% | 84% | 90% | –

Further lines, results first:

Row | remaining at 24 h [1, 4] | remaining at 24 h [1, 5] | remaining at 24 h [2, 6] | remaining at 24 h [3, 7] | remaining at 24 h [1, 8] | remaining at 24 h [1, 9] | remaining at 24 h [2, 10] | remaining at 24 h [3, 11] | SMILES
7 | – | – | – | – | 89% | – | 99% | 102% | CC(=O)NCCC(=O)N[C@@H](CCC(=O)O)C(=O)N[C@@H](CCC(=O)O)C(=O)N[C@@H](CO)C(=O)N[C@@H](CO)C(=O)N[C@@H](Cc1c[nH]c2ccccc12)C(=O)NCC(=O)NCC(=O)N[C@@H](CO)C(=O)N1CCC[C@H]1C(=O)N[C@@H](CO)C(=O)N1CCC[C@H]1C(=O)N[C@H](C(=O)N[C@@H](CCCNC(=N)N)C(=O)NCCC(N)=O)C(C)C [EESSWGGSPSPVR] (Ac-[βAla]EESSWGGSPSPVR[βAla]-NH2)
8 | 38% | 81% | 66% | 94% | – | – | – | – | CC(=O)NCCC(=O)N[C@@H](CCCCN)C(=O)N[C@@H](CC(C)C)C(=O)N[C@H](C(=O)N[C@@H](C)C(=O)N[C@@H](CC(=O)O)C(=O)N1CCC[C@H]1C(=O)N[C@@H](Cc1c[nH]c2ccccc12)C(=O)N[C@@H](C)C(=O)N[C@@H](CO)C(=O)N[C@@H](C)C(=O)N[C@@H](CCC(=O)O)C(=O)NCCC(N)=O)C(C)C [Pro-Trp] (Ac-[βAla]KLVADPWASAE[βAla]-NH2)
9 | 40% | 86% | 72% | 95% | – | – | – | – | CC(=O)NCCC(=O)N[C@@H](CCCCN)C(=O)N[C@@H](CC(C)C)C(=O)N[C@H](C(=O)N[C@@H](C)C(=O)N[C@@H](CC(=O)O)C(=O)N[C@@H](CO)C(=O)N[C@@H](Cc1c[nH]c2ccccc12)C(=O)N[C@@H](C)C(=O)N[C@@H](CO)C(=O)N[C@@H](C)C(=O)N[C@@H](CCC(=O)O)C(=O)NCCC(N)=O)C(C)C [Ser-Trp] (Ac-[βAla]KLVADSWASAE[βAla]-NH2)
10 | – | – | – | – | 22% | 70% | 78% | – | CSCC[C@H](NC(=O)[C@H](CCC(=O)O)NC(=O)CNC(=O)[C@H](Cc1ccccc1)NC(=O)[C@H](CO)NC(=O)[C@H](Cc1ccc(O)cc1)NC(=O)[C@@H](NC(=O)[C@H](CCC(=O)O)NC(=O)CCNC(C)=O)C(C)C)C(=O)N1CCC[C@H]1C(=O)N[C@@H](Cc1c[nH]c2ccccc12)C(=O)NCCC(N)=O [EVYSFGEMPW] (Ac-[βAla]EVYSFGEMPW[βAla]-NH2)
